Here are results for 9 molecules from paper PMC6068142, “Biochemical and structural characterization of a mannose binding jacalin-related lectin with two-sugar binding sites from pineapple (Ananas comosus) stem” (Scientific Reports, 2018).

Converted amounts (≈) assume the structure as drawn. Like-named read-outs stand apart in the source and are kept apart here.

Series [1] deals with T1, AcmJRL (Ananas comosus, UniProt Q53J09).
T1 construct: native, purified from pineapple stem (D-mannose-Agarose, Superdex 75); initiator Met absent; N-terminus SGLVGLG; residues 2-145; not glycosylated; homodimer in solution, tetramer in crystal
T1 sequence (Q53J09 2-145): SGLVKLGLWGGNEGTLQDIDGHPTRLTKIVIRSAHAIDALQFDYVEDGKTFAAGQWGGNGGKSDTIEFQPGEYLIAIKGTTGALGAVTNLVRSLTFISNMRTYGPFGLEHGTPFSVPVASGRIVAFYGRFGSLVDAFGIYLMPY
More on the design: inhibition of lectin-induced rat erythrocyte hemagglutination, two-fold serial dilution, lowest saccharide concentration visibly decreasing agglutination. The following applies: minimum concentration inhibiting hemagglutination of rat erythrocytes; inhibitor. The procedure:
Hemagglutinating activity was performed in microtiter plates with V-bottom wells, using the two-fold serial dilution method, starting with a concentration of 1 mg/mL (65 µM) lectin in phosphate-buffered saline containing 150 mM NaCl. Rabbit, sheep and rat erythrocytes were washed six times with 150 mM NaCl and resuspended at a final concentration of 3% (v/v) in 150 mM NaCl. Twenty-five µL of lectin solution were mixed with 25 µL of 3% erythrocytes, serially diluted and incubated at room temperature and 37 °C for 1 h. Hemagglutination activity was also assayed in the presence of 50 mM of the divalent ions Mg^2+, Mn^2+ Zn^2+ and Ca^2+. In this case, Tris-HCl 50 mM buffer at pH 7.2 containing 150 mM NaCl was used to avoid precipitation of phosphate compounds. The hemagglutination activity was given as a titer (the reciprocal of the highest two-fold dilution) or expressed as the minimum protein concentration (μg/mL), which produced visible hemagglutination and denoted as Hemagglutinating Unit (HU). Specific activity was defined as the HU per milligram of protein. The carbohydrate-binding specificity was determined by the inhibition of hemagglutination of rat erythrocytes, that were only the hemagglutinated ones, with starting concentrations of 100 mM for D-mannose, methyl-α-D-mannopyranoside and methyl-α-D-glucopyranoside, 50 mM for D-glucose and N-acetyl-D-glucosamine, 15 mM for Manα1,3Man and Manα1,3(Manα1,6)Man and 10 mM for Manα1,3Manα1,6(Manα1,6)Manα1,3. The different saccharides were serially diluted from the starting concentrations. After addition of 25 µL of A. comosus lectin (187.5 µg/mL) to all microplate wells, 25 µL of each saccharide were mixed separately in the first microtiter plate well followed by two-fold serial dilution and pre-incubated at room temperature for 1 h. Then 25 µL of 3% […] erythrocyte suspension were added to each well and the hemagglutination activity was evaluated after a further 1 h incubation period at room temperature and 37 °C. […] These are, e.g., the lectins from Phlebodium aureum rhizomes and Centrolobium microchaete seeds and heltuba[19],[47],[52].

The target of series [2] is T2, AcmJRL (Ananas comosus, UniProt Q53J09).
T2 construct: native, purified from pineapple stem (D-mannose-Agarose, Superdex 75); initiator Met absent; N-terminus SGLVGLG; residues 2-145; not glycosylated; homodimer in solution, tetramer in crystal
In words: isothermal titration calorimetry. The class given is binding. To be noted: for Ka (M^-1): Tris-HCl 50 mM, 150 mM NaCl, pH 7.4, 25 °C, fit with fixed n = 2 equivalent sites. The text has this: isothermal titration calorimetry on AcmJRL
A general note: Isothermal titration calorimetry measures the heat released or taken up as one component is titrated into another.

Series [3] has as its target T2, AcmJRL. Nature of the series: inhibition of rat erythrocyte hemagglutination. The class given is cell-based. To be noted: AcmJRL 62.5 µg/mL; two-fold serial dilution of sugar.
Series [4] concerns the molecule itself. Nature of the series: SEC; FPLC gel filtration on Superdex 75 of affinity-purified AcmJRL; 0.15 mM protein; estimated native mass ~30 kDa.
Series [5] deals with the molecule itself. Nature of the series: crystal structure; hanging drop vapor diffusion at 20 °C, protein at 17 mg/mL (1.1 mM); apo form (1.8 Å) and crystals soaked with D-mannose (2.75 Å) or methyl-α-D-mannopyranoside (1.9 Å).

Consider `OC[C@H]1OC(O)[C@H](O)[C@@H](O)[C@@H]1O` (stereo partly drawn) [D-Glucose], for which, at AcmJRL [1], the “MIC” value turned out to be 3.12 mM (≈ 562 µg/mL). The “Ka (M^-1)” value on AcmJRL [2] was determined as 83 ± 3. For `OC[C@H]1OC(O)[C@@H](O)[C@@H](O)[C@@H]1O` (stereo partly drawn) [D-Mannose], the “MIC” value on AcmJRL [1] stood at 6.25 mM (≈ 1130 µg/mL). The Kd on AcmJRL [2] (read-out: Ka (M^-1) (converted)) is 5.62 mM. With `CC(=O)N[C@H]1C(O)O[C@H](CO)[C@@H](O)[C@@H]1O` (stereo partly shown) [GlcNAc], the “MIC” value on AcmJRL [1] is reported as 3.12 mM (≈ 690 µg/mL). For the same molecule, the “Ka (M^-1)” value on AcmJRL [2] was found to be 88 ± 1.

Consider `OC[C@H]1O[C@H](OC[C@H]2O[C@H](OC[C@H]3OC(O)[C@@H](O)[C@@H](O[C@H]4O[C@H](CO)[C@@H](O)[C@H](O)[C@@H]4O)[C@@H]3O)[C@@H](O)[C@@H](O[C@H]3O[C@H](CO)[C@@H](O)[C@H](O)[C@@H]3O)[C@@H]2O)[C@@H](O)[C@@H](O)[C@@H]1O` (stereo partly shown) [Mannopentaose], for which, at AcmJRL [1], the “MIC” value worked out at 0.32 mM (≈ 265 µg/mL). Besides, on AcmJRL [2], the “Ka (M^-1)” value was 1694 ± 679. For `OC[C@H]1O[C@H](OC[C@H]2OC(O)[C@@H](O)[C@@H](O[C@H]3O[C@H](CO)[C@@H](O)[C@H](O)[C@@H]3O)[C@@H]2O)[C@@H](O)[C@@H](O)[C@@H]1O` (stereo partly shown) [Mannotriose], on AcmJRL [1], the “MIC” value was 0.47 mM (≈ 237 µg/mL). Moreover, the “Ka (M^-1)” value at AcmJRL [2] was determined as 734 ± 117. Take `OC[C@H]1O[C@H](O[C@H]2[C@H](O)[C@@H](CO)OC(O)[C@H]2O)[C@@H](O)[C@@H](O)[C@@H]1O` (stereo partly shown) [Manα1,3Man]: the “MIC” value on AcmJRL [1] is 0.94 mM (≈ 322 µg/mL). Also, the “Ka (M^-1)” value at AcmJRL [2] is listed as 421 ± 52. At AcmJRL [3], `CO[C@H]1O[C@H](CO)[C@@H](O)[C@H](O)[C@H]1O` [methyl-α-D-glucopyranoside] yielded an MIC of 1.56 mM (≈ 303 µg/mL). On AcmJRL [3], `CO[C@H]1O[C@H](CO)[C@@H](O)[C@H](O)[C@@H]1O` [methyl-α-D-mannopyranoside] yielded an MIC of 1.56 mM (≈ 303 µg/mL).

B1: Ananas comosus mannose jacalin-related lectin (AcmJRL) (natural protein, UniProt Q53J09 2-145, looked up)
chain: SGLVKLGLWGGNEGTLQDIDGHPTRLTKIVIRSAHAIDALQFDYVEDGKTFAAGQWGGNGGKSDTIEFQPGEYLIAIKGTTGALGAVTNLVRSLTFISNMRTYGPFGLEHGTPFSVPVASGRIVAFYGRFGSLVDAFGIYLMPY
notes: jacalin-like lectin from Ananas comosus (pineapple) stem, SwissProt entry Q53J09_ANACO; each monomer in the crystal runs from Ser2 to Tyr145; not glycosylated; Homodimer in solution by size-exclusion chromatography (0.15 mM); tetramer in the crystal (1.1 mM); Purification methods are in the Supplementary Materials and Methods; also called A. comosus lectin; jacalin-like lectin from A. comosus
The stoichiometry N is a count of units in the complex or per binding partner. For B1, the “stoichiometry N” value in series [4] was 2; in series [5], 4.
